Assay results from PMC7144373, “Composition and Orientation of the Core Region of Novel HIV-1 Entry Inhibitors Influences Metabolic Stability” (Molecules, 2020).

Key:
CYP3A4 = test system: CYP3A4; design: method as in doi:10.1093/ofid/ofz360.2178; conditions: cited from earlier work
[1] = test system: HIV-1B41 Env pseudotyped HIV-1; test: Single-round HIV-1 infection assay (luciferase reporter); conditions: for IC50: Human immunodeficiency virus 1, U87/CD4/CCR5, 48 h, read-out: IC50 against HIV-1B41 Env pseudotyped HIV-1; for IC50 against HIV-1B41 Env pseudotyped HIV-1: U87.CD4.CCR5 cells, single-round infection, 48 h
Experimental: HEK293T cells were plated in 6-well plates with density of 1 × 10^6 cells/well. After 24 h, the two vectors (vector 1 and vector 2) were co-transfected in a 3:4 ratio, respectively [16]. Vector 1 is an HIV-1 pNL4-3-Luc+R-E plasmid with two main features. The vector contains a premature stop codon in the Env gene and replaces HIV-1 Nef gene with the luciferase-reporter gene [19]. Vector 2 is a plasmid expressing the HIV-1B41 gp160 Env [20]. Transient transfections of these vectors were carried out via calcium phosphate (ProFection Mammalian Transfection System, Promega, Madison, WI) for 5 h in DMEM without supplements. After the 5 h incubation period, the medium was replaced with fresh culture media. Seventy-two hours post-transfection, virus was collected by filtering supernatants. The result was single-round infectious virus with pseudotyped envelopes that contained a luciferase reporter [16]. This was aliquoted and stored at −80 °C.
The single-round HIV-1 infection assay was performed as previously described [19, 21, 22]. U87.CD4.CCR5 cells were seeded in Greiner Bio-one 96-well luminometer-compatible tissue culture plates with a density of 1.2 × 10^4 cells/well. After 24 h, compounds underwent serial dilutions in DMEM. DMSO was used as a vehicle control (Sigma). These dilutions were mixed with thawed pseudotyped HIV-1 virus (normalized to p24 content) and added to the U87 cells 100 µL/well. The plates were incubated for 48 h at 37 °C. Post-incubation, the medium was aspirated from each well, and 50 μL/well of 1X luciferase lysis buffer (Promega) was added. The plates were placed at −80 °C for one freeze-thaw cycle. After thawing, 50 µL/well of the luciferase assay substrate (Promega) was added and the luciferase activity of each well was measured by a GloMax 96 microplate luminometer (Promega).

[2] = Metabolic stability in human liver microsomes; conditions: for k (rate of metabolism): 1.0 µM compound, 0.5 mg/mL HLM, NADPH, 37 °C; for Eh (hepatic extraction ratio): (Clh/Q) × 100; for Clapp: extrapolated for a human with scaling factors; for Clh: extrapolated, Q = 20 mL/min/kg; for half-life at 1 µM / microsomal CLint at 1 µM: human, human liver microsomes, pH 7.4
Experimental: Metabolic stability analysis was performed as outlined in Lu et al..
Preparation of solutions. Test compound was weighed and dissolved in 100% DMSO to get 10 mM stock solution. The stock solution was diluted to 100 μM with mixture of acetonitrile and H2O (1:1). The final concentrations of DMSO and acetonitrile were equal to or less than 0.1%. […]
Microsomal incubation. Liver microsomes incubations were conducted in duplicate in 96-well plates. […] Reactions were terminated at various time points (0, 5, 10, 20, 40 min) by adding 150 µL of ice-cold methanol and acetonitrile (1:1, v/v) containing the internal standard.
LC-MS/MS analysis: A Waters liquid chromatographic system was used. […] The flow rate was maintained at 0.6 mL/min. Detection was performed on an API4000 Q-Trap mass spectrometer equipped with TurboIonSpray (ESI) Interface (Applied Biosystems, Concord, Ontario, Canada). Analyst 1.5 software packages (Applied Biosystems) were used to control the LC-MS/MS system, and for data acquisition and processing.
Data analysis: The peak area ratio of a test compound to internal standard was plotted as a percentage of the relevant zero time point control (%remaining) for each reaction. The rate of metabolism (k) is the slope of the linear regression from log percentage remaining versus incubation time.

[3] = Cellular toxicity (CCK-8 cell viability); conditions: human, U87.CD4.CCR5 cells
U87.CD4.CCR5 cells = test: Cellular toxicity (CCK-8 cell viability)

Row | Compound | Primary metabolizing isoform as determined (CYP3A4) | IC50 [1] [nM] | k (rate of metabolism) [2] | Eh (hepatic extraction ratio) [2] [%] | Clapp [2] [L/h/kg] | Clh [2] [L/h/kg] | half-life at 1 µM [2] [min] | microsomal CLint at 1 µM [2] [µL/min/mg] | Metabolic stability compared with temsavir/BMS-626529 ([2]; human liver microsome half-lives) | CC50 at 48 h [3] [µM] | Toxicity in words (U87.CD4.CCR5 cells) | IC50 against HIV-1B41 Env pseudotyped HIV-1 [1]
1 | COc1cnc(-n2cnc(C)n2)c2[nH]cc(C(=O)C(=O)N3CCN(C(=O)c4ccccc4)CC3)c12 [BMS-626529, reference compound] | CYP3A4 | 0.05 ± 0.006 | – | – | – | – | – | – | – | – | – | –
2 | COc1cnc(-n2cnc(C)n2)c2[nH]cc(C(=O)C(=O)N3CC4CN(C(=O)c5ccccc5)CC4C3)c12 (centres unmarked) [SC11] | – | 2 ± 0.2 | 0.07253 | 87.49 | 8.39322 | 1.0499 | 9.6 | 145 | – | – | – | –
3 | COc1cnc(-n2cnc(C)n2)c2[nH]cc(C(=O)C(=O)N3Cc4cnn(-c5ccccc5)c4C3)c12 [SC12] | – | 6 ± 0.3 | 0.1058 | 91.0753 | 12.25 | 1.093 | 6.55 | 212 | – | – | – | –
4 | COc1cnc(-n2cnc(C)n2)c2[nH]cc(C(=O)C(=O)N3CC(CCC(=O)c4ccccc4)C3)c12 [SC15] | – | 7 ± 0.1 | 0.05268 | 83.55 | 6.09528 | 1.0026 | 13.2 | 105 | – | – | – | –
5 | COc1cnc(-n2cnc(C)n2)c2[nH]cc(C(=O)C(=O)NC3C4CN(C(=O)c5ccccc5)CC43)c12 (centres unmarked) [SC28] | – | – | 0.00479 | 31.61 | 0.5547 | 0.3793 | 145 | 9.6 | more than twice the metabolic stability of temsavir/BMS-626529 | > 400 | very low toxicities | –
6 | COc1cnc(-n2cnc(C)n2)c2[nH]cc(C(=O)C(=O)N3C[C@@H]4[C@H](C3)[C@H]4NC(=O)c3ccccc3)c12 [SC46] | – | 91.5 | 0.0076 | 42.28 | 0.87942 | 0.5073 | 91.2 | 15.2 | – | > 1000 | very low toxicities | low nanomolar range
7 | COc1cnc(-n2cnc(C)n2)c2[nH]cc(C(=O)C(=O)N3CC(C)N(C(=O)c4ccccc4)C(C)C3)c12 (centres unmarked) [SC54, 1-(4-benzoyl-3,5-dimethylpiperazin-1-yl)-2-(4-methoxy-7-(3-methyl-1H-1,2,4-triazol-1-yl)-1H-pyrrolo[2,3-c]pyridin-3-yl)ethane-1,2-dione] | – | 0.41 ± 0.061 | 0.02223 | 68.19 | 2.573 | 0.8184 | 31.2 | 44.5 | – | – | – | low nanomolar range
8 | C[C@]12CC[C@H]3[C@@H](CCC4=CC(=O)CC[C@@]43C)[C@@H]1CC[C@@H]2O [Testosterone, reference compound] | – | – | 0.05134 | – | 5.9403 | 0.99834 | – | – | – | – | – | –
